Laboratory results reported in ChEMBL document CHEMBL3785047, “Biological evaluation of synthetic α,β-unsaturated carbonyl based cyclohexanone derivatives as neuroprotective novel inhibitors of acetylcholinesterase, butyrylcholinesterase and amyloid-β aggregation” (Bioorg Med Chem, 2016).

Columns and labels:
[1] = Cytotoxicity against rat PC12 cells assessed as reduction in cell viability at 0.01 to 100 uM after 24 hrs by MTT assay; format: cell-based; settings: pc-12, 24 h
[2] = system: PC-12; assay: Neuroprotective activity against amyloid beta (1 to 42)-induced cell death in rat PC12 cells assessed as cell viability at 100 uM preincubated for 24 hrs followed by amyloid beta (1 to 42) addition measured after 1 day by MTT assay relative to control; format: functional; settings: read-out: Activity
[3] = target: Cholinesterase (Equus caballus, UniProt P81908)
Sequence of Cholinesterase (P81908 whole entry): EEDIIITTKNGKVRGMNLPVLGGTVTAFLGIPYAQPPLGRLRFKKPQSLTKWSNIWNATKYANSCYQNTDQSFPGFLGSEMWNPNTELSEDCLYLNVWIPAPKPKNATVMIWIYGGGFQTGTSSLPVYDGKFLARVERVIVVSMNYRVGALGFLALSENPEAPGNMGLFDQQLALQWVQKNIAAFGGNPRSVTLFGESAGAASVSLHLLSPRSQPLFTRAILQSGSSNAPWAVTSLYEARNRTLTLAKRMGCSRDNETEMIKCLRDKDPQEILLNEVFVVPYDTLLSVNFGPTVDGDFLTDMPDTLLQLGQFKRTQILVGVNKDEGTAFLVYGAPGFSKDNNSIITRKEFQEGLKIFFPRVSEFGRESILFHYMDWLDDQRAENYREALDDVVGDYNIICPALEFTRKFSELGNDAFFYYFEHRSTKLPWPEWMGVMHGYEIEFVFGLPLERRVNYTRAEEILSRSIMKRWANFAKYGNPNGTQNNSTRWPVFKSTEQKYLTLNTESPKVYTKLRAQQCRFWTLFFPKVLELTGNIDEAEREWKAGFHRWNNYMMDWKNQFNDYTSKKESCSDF
Description: Inhibition of horse serum BChE using butrylthiocholine iodide as substrate preincubated for 5 mins followed by substrate addition measured for 10 mins by modified Ellman's method

[4] = target: Acetylcholinesterase (Electrophorus electricus, UniProt O42275)
Sequence of Acetylcholinesterase (O42275 whole entry): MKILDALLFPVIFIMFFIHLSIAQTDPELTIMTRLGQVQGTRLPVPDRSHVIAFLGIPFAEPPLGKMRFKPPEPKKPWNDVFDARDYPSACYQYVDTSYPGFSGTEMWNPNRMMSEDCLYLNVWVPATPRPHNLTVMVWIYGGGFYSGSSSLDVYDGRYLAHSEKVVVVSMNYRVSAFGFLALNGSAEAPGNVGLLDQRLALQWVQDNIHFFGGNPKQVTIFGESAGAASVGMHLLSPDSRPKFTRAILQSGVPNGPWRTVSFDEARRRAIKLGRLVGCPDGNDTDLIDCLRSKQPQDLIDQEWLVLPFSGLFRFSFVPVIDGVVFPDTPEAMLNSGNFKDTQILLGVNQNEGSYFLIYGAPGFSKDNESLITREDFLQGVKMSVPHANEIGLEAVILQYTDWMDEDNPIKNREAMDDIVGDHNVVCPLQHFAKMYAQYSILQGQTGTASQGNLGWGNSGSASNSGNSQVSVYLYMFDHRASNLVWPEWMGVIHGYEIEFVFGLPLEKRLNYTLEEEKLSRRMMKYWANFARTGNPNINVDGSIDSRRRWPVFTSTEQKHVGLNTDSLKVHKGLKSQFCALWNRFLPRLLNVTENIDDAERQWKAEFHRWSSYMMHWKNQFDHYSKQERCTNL
Description: Inhibition of electric eel AChE using acetylthiocholine iodide as substrate preincubated for 5 mins followed by substrate addition measured for 10 mins by modified Ellman's method

[5] = target: Amyloid-beta precursor protein (Homo sapiens) (UniProt P05067); assay: Inhibition of amyloid beta (1-42) (unknown origin) self-induced aggregation after 2 days by thioflavin T fluorometric assay
Sequence of Amyloid-beta precursor protein (Homo sapiens) (P05067 whole entry): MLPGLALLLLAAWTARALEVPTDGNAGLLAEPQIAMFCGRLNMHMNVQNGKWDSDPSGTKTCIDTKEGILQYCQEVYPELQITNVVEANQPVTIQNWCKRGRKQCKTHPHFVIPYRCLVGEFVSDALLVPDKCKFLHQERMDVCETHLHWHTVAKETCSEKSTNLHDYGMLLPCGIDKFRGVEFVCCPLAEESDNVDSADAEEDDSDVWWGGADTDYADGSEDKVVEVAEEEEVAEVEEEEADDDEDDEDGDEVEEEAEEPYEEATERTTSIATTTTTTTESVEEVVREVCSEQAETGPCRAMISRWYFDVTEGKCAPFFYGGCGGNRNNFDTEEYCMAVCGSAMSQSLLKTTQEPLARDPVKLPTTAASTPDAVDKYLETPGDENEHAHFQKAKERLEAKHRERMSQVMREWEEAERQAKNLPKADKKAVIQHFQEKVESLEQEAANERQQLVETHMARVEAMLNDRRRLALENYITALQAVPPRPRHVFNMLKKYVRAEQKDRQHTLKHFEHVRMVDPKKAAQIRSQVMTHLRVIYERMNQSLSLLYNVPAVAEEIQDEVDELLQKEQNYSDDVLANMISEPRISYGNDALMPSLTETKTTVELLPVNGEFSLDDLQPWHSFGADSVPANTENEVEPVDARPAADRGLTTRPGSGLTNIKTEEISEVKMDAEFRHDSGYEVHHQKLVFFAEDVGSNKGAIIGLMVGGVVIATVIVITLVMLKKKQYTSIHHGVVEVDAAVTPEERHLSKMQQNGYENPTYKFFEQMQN

In the case of COc1ccc(/C=C2\CC(C)C/C(=C\c3ccc(OC)c(OC)c3Cl)C2=O)c(Cl)c1OC (centres undefined), the Activity [1] is reported as “Non-toxic”, the viability at 100 µM [2] is reported as 58% and the IC50 [3] is reported as 11.2 µM. For the same compound, the IC50 [4] was 2.1 µM.
In the case of COc1ccc(/C=C2\CC(C(C)C)C/C(=C\c3ccc(OC)c(OC)c3Cl)C2=O)c(Cl)c1OC (centres undefined), the Activity [1] is reported as “Non-toxic”, the viability at 100 µM [2] is reported as 58% and the IC50 [3] is reported as over 100 µM. For the same compound, the IC50 [4] was 0.92 µM and the inhibition [5] was “Dose-dependent effect”.
For COc1cccc(/C=C2\CC(C(C)C)C/C(=C\c3cccc(OC)c3Cl)C2=O)c1Cl (centres undefined), the Activity [1] was “Non-toxic”, the viability at 100 µM [2] was 58% and the IC50 [3] was over 100 µM. The IC50 [4] was 1.3 µM.
For COc1cc(/C=C2\COC/C(=C\c3cc(OC)c(OC)c(OC)c3Br)C2=O)c(Br)c(OC)c1OC, the Activity [1] was “Non-toxic”, the viability at 100 µM [2] was at most 92% and the IC50 [3] was over 100 µM. For the same compound, the IC50 [4] was 1.5 µM.
With COc1ccc(/C=C2\COC/C(=C\c3ccc(OC)c(OC)c3Cl)C2=O)c(Cl)c1OC the Activity [1] was “Non-toxic”, the viability at 100 µM [2] was 58% and the IC50 [3] was over 100 µM. It also gave an IC50 [4] of 7.2 µM.
With COc1cccc(/C=C2\CCC/C(=C\c3cccc(OC)c3Cl)C2=O)c1Cl the Activity [1] was “Non-toxic”, the viability at 100 µM [2] was 58% and the IC50 [3] was over 100 µM. It also gave an IC50 [4] of 22.4 µM.
In the case of COc1cc(/C=C2\CNC/C(=C\c3cc(OC)c(OC)c(OC)c3Br)C2=O)c(Br)c(OC)c1OC, the Activity [1] is reported as “Non-toxic”, the viability at 100 µM [2] is reported as at most 92% and the IC50 [3] is reported as 68.8 µM. For the same compound, the IC50 [4] was 1.9 µM.
With COc1cccc(/C=C2\CN(Cc3ccccc3)C/C(=C\c3cccc(OC)c3Cl)C2=O)c1Cl the Activity [1] was “Non-toxic”, the viability at 100 µM [2] was 58% and the IC50 [3] was over 100 µM. For the same compound, the IC50 [4] was over 100 µM.
In the case of COc1cccc(/C=C2\CC(C)C/C(=C\c3cccc(OC)c3Cl)C2=O)c1Cl (centres undefined), the Activity [1] is reported as “Non-toxic”, the viability at 100 µM [2] is reported as 58% and the IC50 [3] is reported as 49.7 µM. For the same compound, the IC50 [4] was 5.6 µM.
In the case of COc1cc(/C=C2\CC(C(C)C)C/C(=C\c3cc(OC)c(OC)c(OC)c3Br)C2=O)c(Br)c(OC)c1OC (centres undefined), the Activity [1] is reported as “Non-toxic”, the viability at 100 µM [2] is reported as 58% and the IC50 [3] is reported as over 100 µM. For the same compound, the IC50 [4] was 0.51 µM and the inhibition [5] was “Dose-dependent effect”.
For COc1cc(/C=C2\CC(C)C/C(=C\c3cc(OC)c(OC)c(OC)c3Br)C2=O)c(Br)c(OC)c1OC (centres undefined), the Activity [1] was “Non-toxic”, the viability at 100 µM [2] was at most 92% and the IC50 [3] was 19.5 µM. For the same compound, the IC50 [4] was 1.5 µM.
For COc1ccc(/C=C2\CCC/C(=C\c3ccc(OC)c(OC)c3Cl)C2=O)c(Cl)c1OC, the Activity [1] was “Non-toxic”, the viability at 100 µM [2] was 58% and the IC50 [3] was over 100 µM. It also gave an IC50 [4] of 17.5 µM.
In the case of COc1cccc(/C=C2\CN(C)C/C(=C\c3cccc(OC)c3Cl)C2=O)c1Cl, the Activity [1] is reported as “Non-toxic”, the viability at 100 µM [2] is reported as at most 92% and the IC50 [3] is reported as over 100 µM. The IC50 [4] was 1.2 µM.
In the case of COc1ccc(/C=C2\CN(Cc3ccccc3)C/C(=C\c3ccc(OC)c(OC)c3Cl)C2=O)c(Cl)c1OC, the Activity [1] is reported as “Non-toxic”, the viability at 100 µM [2] is reported as 58% and the IC50 [3] is reported as over 100 µM. It also gave an IC50 [4] of over 100 µM.
In the case of COc1cccc(/C=C2\COC/C(=C\c3cccc(OC)c3Cl)C2=O)c1Cl, the Activity [1] is reported as “Non-toxic”, the viability at 100 µM [2] is reported as 58% and the IC50 [3] is reported as over 100 µM. It also gave an IC50 [4] of 9.5 µM.
In the case of COc1ccc(/C=C2\CN(C)C/C(=C\c3ccc(OC)c(OC)c3Cl)C2=O)c(Cl)c1OC, the Activity [1] is reported as “Non-toxic”, the viability at 100 µM [2] is reported as at most 92% and the IC50 [3] is reported as 2.9 µM. The IC50 [4] was 0.63 µM and the inhibition [5] was “Dose-dependent effect”.
With COc1cccc(/C=C2\CNC/C(=C\c3cccc(OC)c3Cl)C2=O)c1Cl the Activity [1] was “Non-toxic”, the viability at 100 µM [2] was 58% and the IC50 [3] was over 100 µM. For the same compound, the IC50 [4] was 5.2 µM.
For COc1cc(/C=C2\CN(Cc3ccccc3)C/C(=C\c3cc(OC)c(OC)c(OC)c3Br)C2=O)c(Br)c(OC)c1OC, the Activity [1] was “Non-toxic”, the viability at 100 µM [2] was 58% and the IC50 [3] was over 100 µM. For the same compound, the IC50 [4] was over 100 µM.
In the case of COc1cc(/C=C2\CN(C)C/C(=C\c3cc(OC)c(OC)c(OC)c3Br)C2=O)c(Br)c(OC)c1OC, the Activity [1] is reported as “Non-toxic”, the viability at 100 µM [2] is reported as at most 92% and the IC50 [3] is reported as 10.5 µM. For the same compound, the IC50 [4] was 0.037 µM and the inhibition [5] was “Dose-dependent effect”.
For COc1ccc(/C=C2\CNC/C(=C\c3ccc(OC)c(OC)c3Cl)C2=O)c(Cl)c1OC, the Activity [1] was “Non-toxic”, the viability at 100 µM [2] was 58% and the IC50 [3] was 16.7 µM. The IC50 [4] was 3.7 µM.
With COc1cc(/C=C2\CCC/C(=C\c3cc(OC)c(OC)c(OC)c3Br)C2=O)c(Br)c(OC)c1OC the Activity [1] was “Non-toxic”, the viability at 100 µM [2] was 58% and the IC50 [3] was over 100 µM. For the same compound, the IC50 [4] was 12.6 µM and the inhibition [5] was “Dose-dependent effect”.
